How the values were obtained:
[1] = Toxicity of acetaminophen in iron overloaded animals versus animals with normal iron levels; format: in vivo; settings: multiple tests, no details given
Excerpt: It was initially believed that acetaminophen would be more toxic in iron overloaded animals than in animals having normal iron levels.

iron-overloaded gerbils = test: Iron-overload model in Mongolian gerbils (iron dextran ip), treatment with acetaminophen; format: in vivo, Mongolian gerbil
Excerpt: Female Mongolian gerbils were divided into groups: positive iron control (iron injections given), iron-treated (injections of iron and acetaminophen), negative iron controls (no iron given), and treatment controls (injections of the investigational agent, only). Gerbils designated to receive iron were iron overloaded by a series of intraperitoneal (ip) injections of iron dextran during a two-month period of time. Treatments were initiated one month after completion of iron overloading and continued for one additional month.
Electrocardiograms (ECGs) were done on gerbils in all four groups, two months and again three months after completion of iron overloading. Gerbils were autopsied five months after completion of iron overloading and resulting stained tissue slides were evaluated by light microscopy. Livers and whole hearts were obtained from gerbils in control and iron-overloaded groups and weighed. Whole hearts and weighed liver samples were acid digested and measured for total iron content.

CC(=O)Nc1ccc(O)cc1 [acetaminophen]
toxicity in animals having an iron overload compared with animals having normal iron levels [1]: less toxic in animals having an iron overload than in animals having normal iron levels | premature ventricular complexes (EKG findings) (iron-overloaded gerbils; ECGs two and three months after completion of iron overloading, four of 10 untreated iron-overloaded gerbils (40%) showed them): not in animals from the other three groups | iron-induced cardiac and hepatic hypertrophy (heart weights, heart/total body weight ratios, liver weights, liver/total body weight ratios) (iron-overloaded gerbils; autopsies, weight data and histological evaluations): effectively combats iron-induced cardiac and hepatic hypertrophy | reduction of cardiac iron (ICP-AES tissue iron measurement) (iron-overloaded gerbils; iron-overloaded female gerbils, versus untreated iron-overloaded animals, almost entirely from cardiomyocytes, less from cardiac macrophages, P<0.005): over 40% | reduction in liver iron (ICP-AES tissue iron measurement) (iron-overloaded gerbils; iron-overloaded female gerbils, versus untreated iron-overloaded animals, not statistically significant): 17% | accumulations of iron in the bone marrow, proximal renal tubules, heart and numerous other organs and tissues (iron-overloaded gerbils; stained tissue slides, light microscopy, less effect in the livers): greatly reduced accumulations of iron | deaths (iron-overloaded gerbils; within 5 months after iron overloading, eight of 20 untreated iron-overloaded gerbils died): No deaths

From patent US6509380B1, “Method of treating iron overload with acetaminophen” (Marshall University Research Corporation, priority 2001, dated 2003)
